# Experimental data published in ChEMBL document CHEMBL1143678, “Self-assembling cannabinomimetics: supramolecular structures of N-alkyl amides” (J Nat Prod, 2007).
# Molecular target: Cannabinoid receptor 2 (Homo sapiens, UniProt P34972)
# Assay: Displacement of [3H]CP-55940 from CB2 receptor expressed in HEK cells
# Assay type: cell-based, HEK293
# Cannabinoid receptor 2, sequence (P34972 whole entry): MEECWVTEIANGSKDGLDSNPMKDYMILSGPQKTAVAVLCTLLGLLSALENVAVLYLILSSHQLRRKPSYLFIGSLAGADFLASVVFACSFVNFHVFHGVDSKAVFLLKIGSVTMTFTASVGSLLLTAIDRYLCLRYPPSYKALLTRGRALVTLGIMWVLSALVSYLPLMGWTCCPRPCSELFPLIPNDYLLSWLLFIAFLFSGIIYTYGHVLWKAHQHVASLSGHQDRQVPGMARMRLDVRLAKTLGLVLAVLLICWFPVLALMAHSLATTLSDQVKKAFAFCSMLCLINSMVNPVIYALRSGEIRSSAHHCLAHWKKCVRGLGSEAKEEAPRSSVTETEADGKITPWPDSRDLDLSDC
compound,measurement,value
CCCCCCC/C=C/C=C/C(=O)NCC(C)C,Ki,52 nM
